Assay results: patent publication US10369130B2, “Antibacterial compounds” (AZIENDE CHIMICHE RIUNITE ANGELINI FRANCESCO A.C.R.A.F. …, priority 2014, dated 2019)
Counter-ions that a name gives are not always drawn.

Assays:
Format in all cases: biochemical
Settings in all cases: single concentration (200, 100 or 50 μM), in duplicate, versus the positive control (vehicle)
Topoisomerase IV [1] = target: T1, Topoisomerase IV (Staphylococcus aureus, UniProt P0C1S7+P0C1U9); test: Topoisomerase IV decatenation assay (S. aureus)
T1 construct: purchased Inspiralis, UK
T1 sequence (P0C1S7 whole entry): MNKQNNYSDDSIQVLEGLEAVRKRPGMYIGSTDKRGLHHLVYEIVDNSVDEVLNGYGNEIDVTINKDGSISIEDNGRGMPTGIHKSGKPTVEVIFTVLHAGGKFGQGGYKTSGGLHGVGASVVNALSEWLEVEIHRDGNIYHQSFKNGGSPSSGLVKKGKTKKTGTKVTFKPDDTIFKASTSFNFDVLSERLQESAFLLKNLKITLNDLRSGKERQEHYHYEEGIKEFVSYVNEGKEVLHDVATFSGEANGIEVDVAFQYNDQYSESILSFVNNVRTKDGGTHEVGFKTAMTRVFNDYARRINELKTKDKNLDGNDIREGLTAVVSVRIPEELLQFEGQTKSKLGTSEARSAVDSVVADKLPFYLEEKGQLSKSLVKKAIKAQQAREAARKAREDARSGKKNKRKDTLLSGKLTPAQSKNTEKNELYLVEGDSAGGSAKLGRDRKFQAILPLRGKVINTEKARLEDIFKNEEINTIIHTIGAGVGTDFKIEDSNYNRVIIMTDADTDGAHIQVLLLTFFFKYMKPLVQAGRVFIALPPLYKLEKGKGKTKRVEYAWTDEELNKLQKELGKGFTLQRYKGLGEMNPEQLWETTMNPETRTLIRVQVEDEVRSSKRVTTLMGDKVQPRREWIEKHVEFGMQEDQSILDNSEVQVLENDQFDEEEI
T1 sequence (P0C1U9 whole entry): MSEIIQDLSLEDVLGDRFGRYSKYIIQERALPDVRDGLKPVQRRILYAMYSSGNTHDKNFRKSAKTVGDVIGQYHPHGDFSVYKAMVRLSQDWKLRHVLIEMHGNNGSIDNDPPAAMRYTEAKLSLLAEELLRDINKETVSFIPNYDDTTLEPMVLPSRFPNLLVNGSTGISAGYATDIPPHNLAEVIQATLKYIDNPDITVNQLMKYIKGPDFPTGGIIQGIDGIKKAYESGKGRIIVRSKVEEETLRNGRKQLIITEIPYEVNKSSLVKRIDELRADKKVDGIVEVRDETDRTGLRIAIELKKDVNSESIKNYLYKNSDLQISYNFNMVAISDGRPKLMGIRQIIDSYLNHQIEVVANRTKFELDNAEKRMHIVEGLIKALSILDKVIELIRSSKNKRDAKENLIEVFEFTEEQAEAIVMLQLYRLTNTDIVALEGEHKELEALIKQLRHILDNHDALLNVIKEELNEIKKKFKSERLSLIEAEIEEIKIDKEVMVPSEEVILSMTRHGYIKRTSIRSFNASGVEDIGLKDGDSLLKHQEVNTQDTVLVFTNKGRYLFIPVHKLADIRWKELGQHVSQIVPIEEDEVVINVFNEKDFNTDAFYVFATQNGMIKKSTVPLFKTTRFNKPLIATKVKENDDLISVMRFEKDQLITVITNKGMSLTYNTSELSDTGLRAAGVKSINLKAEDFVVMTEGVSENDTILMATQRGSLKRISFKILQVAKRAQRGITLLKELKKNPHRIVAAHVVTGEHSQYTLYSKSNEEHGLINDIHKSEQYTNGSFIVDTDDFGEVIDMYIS
Experimental: (§1) The above compounds were tested for the inhibition of the enzyme DNA gyrase in a gyrase supercoiling assay and for the inhibition of the enzyme topoisomerase IV in a decatenation assay, in both Gram positive and Gram negative bacteria, according to the following methods.
(§2) Both the assays were carried out according to a set-up method modified from the article to Blanche F, et al. “Differential Behaviors of Staphylococcus aureus and Escherichia coli Type II DNA Topoisomerases”, Antimicrob.
(§3) The compounds were screened at single concentration (200, 100 or 50 μM), in duplicate.
(§4) Ciprofloxacin and novobiocin were used as reference compounds, at single concentration of 200 and 50 μM, respectively.
(§5) Topoisomerase IV Decatenation Assay
(§6) S. aureus and E. coli Topoisomerase IV decatenation kits (Inspiralis, UK) were used. A master mix with a total volume sufficient for the number of reactions to perform was prepared with the following reagents: 5× assay buffer (50 mM HEPES-KOH (pH 7.6), 100 mM potassium glutamate, 10 mM magnesium acetate, 10 mM DTT, 1 mM ATP, 50 μg/ml albumin), kDNA substrate (200 ng/reaction), RNase-DNase free water. Aliquots of this mix were dispensed in each tube, then 10× compound stock solutions or vehicle control (DMSO), were added in each reaction tube.
(§7) Reaction was started with Topoisomerase IV enzyme (0.5 U/reaction) addition.
(§8) A sample added with an equal volume of dilution buffer was used as negative control (without enzyme).
(§9) The reaction tubes were gentle vortexed and incubated 30 minutes at 37° C. Each reaction was stopped by adding 30 μl of Stop Buffer and 30 μl of chloroform/isoamyl alcohol (24/1), briefly vortexed for 5-10 seconds and centrifuged at 20000×g for 2 minutes. Samples taken from the upper phase were loaded into 1% agarose gel and subjected to electrophoresis for 1 hour at 80V constant voltage in TAE (40 mM Tris-acetate, 2 mM EDTA).
(§10) Data acquisition and analysis. Due to the high molecular mass, kDNA could not enter an agarose gel under normal electrophoresis conditions, but remained in the wells. In the presence of Topo IV topoisomerase mini-circles (2.5 Kb) were released from kDNA by decatenation and were quickly and easily resolved in the gel at relatively high voltages.
(§11) Bands were visualized by ethidium bromide staining (dil 1:20000) for 30 minutes followed by destaining in distilled water for 10 minutes.
(§12) For single concentration screening assay, in order to evaluate the compounds activity on the enzymes, the bands of decatenated DNAs in the gel were photographed by a digital imaging system ImageQuant LAS 4000 (GE Healthcare) according to manufacturer's instructions.
(§13) The fluorescent intensity of each band was analyzed by ImageQuant TL software and it was expressed as volume (volume of the uncalibrated quantity of material in the image feature after subtraction of the background intensity by using rolling ball method).
(§14) Each band intensity was compared, as percentage, to vehicle sample band intensity, which served as positive control, on the same gel.
(§15) Inhibitory activity was expressed as percent of inhibition versus the positive control.

DNA gyrase [2] = target: T2, DNA gyrase (Escherichia coli, UniProt P0AES4+P0AES6); test: DNA gyrase supercoiling assay (E. coli)
T2 construct: purchased Inspiralis, UK
Experimental: as §1, §2, §3, §4
(§16) DNA Gyrase Supercoiling Assay.
(§17) Reagents from S. aureus and E. coli Gyrase Supercoiling Assay kits (Inspiralis, UK) were used. A master mix with a total volume sufficient for the number of reactions to perform was prepared with the following reagents: 5× assay buffer, relaxed pBR322 substrate (0.5 μg/reaction), RNase-DNase free water. Aliquotes of this mix were dispensed in each tube, then 10× compound stock solutions or vehicle control (DMSO), were added to each reaction tube.
(§18) Reaction was started with E. Coli (2 U/reaction) or S. aureus (1 U/reaction) gyrase enzyme addition.
as §8
(§19) The reaction tubes were gentle vortexed and incubated 30 minutes at 37° C. Each reaction was stopped by adding 30 μl of Stop Buffer and 30 μl chloroform/isoamyl alcohol (24/1), briefly vortexed for 5-10 seconds and centrifuged at 20000×g for 2 minutes. Samples were loaded onto 1% agarose gel and subjected to electrophoresis for 1 hour at 80V constant voltage in TAE (40 mM Tris-acetate, 2 mM EDTA).
(§20) Data acquisition and analysis. Treatment of relaxed pBR322 with DNA gyrase converted the relaxed topoisomers (DNAs of different linking number) to the supercoiled form of the plasmid, which migrates faster on an agarose gel. An upper band might also be visible, which consists of open-circular (nicked) DNA which is present in the relaxed substrate but co-migrates with some of the relaxed topoisomers.
as §11
(§21) In order to evaluate the compounds activity on the enzyme, the bands of supercoiled DNAs in the gel were photographed by a digital imaging system ImageQuant LAS 4000 (GE Healthcare) according to manufacturer's instructions.
(§22) The fluorescent intensity of each band was analysed by ImageQuant TL software and it was expressed as volume (volume of the uncalibrated quantity of material in the image feature after subtraction of the background intensity by using rolling ball method).
as §14, §15

Topoisomerase IV [3] = target: T3, Topoisomerase IV (Escherichia coli, UniProt P0AFI2+P20083); test: Topoisomerase IV decatenation assay (E. coli)
T3 construct: purchased Inspiralis, UK
T3 sequence (P20083 whole entry): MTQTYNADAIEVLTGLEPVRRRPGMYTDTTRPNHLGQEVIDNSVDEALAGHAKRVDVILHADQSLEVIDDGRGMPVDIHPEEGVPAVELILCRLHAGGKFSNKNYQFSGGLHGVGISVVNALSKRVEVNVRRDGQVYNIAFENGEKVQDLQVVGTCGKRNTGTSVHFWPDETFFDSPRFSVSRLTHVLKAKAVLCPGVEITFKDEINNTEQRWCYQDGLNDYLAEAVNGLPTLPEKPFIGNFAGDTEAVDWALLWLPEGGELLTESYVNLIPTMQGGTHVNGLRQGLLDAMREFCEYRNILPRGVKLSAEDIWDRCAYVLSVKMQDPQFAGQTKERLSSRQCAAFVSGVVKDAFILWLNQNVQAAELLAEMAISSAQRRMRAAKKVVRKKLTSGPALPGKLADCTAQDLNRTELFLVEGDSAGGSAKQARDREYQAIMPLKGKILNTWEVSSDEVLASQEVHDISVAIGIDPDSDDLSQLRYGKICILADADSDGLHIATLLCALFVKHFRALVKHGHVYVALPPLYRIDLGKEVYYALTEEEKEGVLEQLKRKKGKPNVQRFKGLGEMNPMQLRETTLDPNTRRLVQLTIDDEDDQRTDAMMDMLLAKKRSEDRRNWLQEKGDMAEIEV
T3 sequence (P0AFI2 whole entry): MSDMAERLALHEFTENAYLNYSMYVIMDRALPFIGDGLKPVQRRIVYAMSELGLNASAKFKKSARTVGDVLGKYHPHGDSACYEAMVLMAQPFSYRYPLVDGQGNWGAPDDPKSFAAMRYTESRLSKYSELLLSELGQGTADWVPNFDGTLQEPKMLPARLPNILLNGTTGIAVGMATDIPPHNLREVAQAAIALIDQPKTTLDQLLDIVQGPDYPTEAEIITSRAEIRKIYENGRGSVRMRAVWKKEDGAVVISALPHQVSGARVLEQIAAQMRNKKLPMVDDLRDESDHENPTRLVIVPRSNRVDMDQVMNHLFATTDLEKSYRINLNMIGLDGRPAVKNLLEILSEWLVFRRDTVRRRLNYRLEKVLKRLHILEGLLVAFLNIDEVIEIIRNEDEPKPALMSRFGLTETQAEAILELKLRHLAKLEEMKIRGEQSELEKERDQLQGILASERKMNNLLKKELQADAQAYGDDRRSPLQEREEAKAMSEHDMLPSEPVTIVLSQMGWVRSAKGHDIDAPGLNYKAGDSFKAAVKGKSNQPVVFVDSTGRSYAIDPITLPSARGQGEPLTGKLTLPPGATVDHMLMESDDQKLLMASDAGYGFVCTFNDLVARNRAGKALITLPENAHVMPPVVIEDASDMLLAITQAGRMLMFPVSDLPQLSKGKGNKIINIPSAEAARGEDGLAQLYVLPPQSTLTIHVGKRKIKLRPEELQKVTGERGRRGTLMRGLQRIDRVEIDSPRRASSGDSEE
Experimental: as §1, §2, §3, §4, §5, §6, §7, §8, §9, §10, §11, §12, §13, §14, §15

DNA gyrase [4] = target: T4, DNA gyrase (Staphylococcus aureus, UniProt P0A0K8+P20831); test: DNA gyrase supercoiling assay (S. aureus)
T4 construct: purchased Inspiralis, UK
T4 sequence (P20831 whole entry): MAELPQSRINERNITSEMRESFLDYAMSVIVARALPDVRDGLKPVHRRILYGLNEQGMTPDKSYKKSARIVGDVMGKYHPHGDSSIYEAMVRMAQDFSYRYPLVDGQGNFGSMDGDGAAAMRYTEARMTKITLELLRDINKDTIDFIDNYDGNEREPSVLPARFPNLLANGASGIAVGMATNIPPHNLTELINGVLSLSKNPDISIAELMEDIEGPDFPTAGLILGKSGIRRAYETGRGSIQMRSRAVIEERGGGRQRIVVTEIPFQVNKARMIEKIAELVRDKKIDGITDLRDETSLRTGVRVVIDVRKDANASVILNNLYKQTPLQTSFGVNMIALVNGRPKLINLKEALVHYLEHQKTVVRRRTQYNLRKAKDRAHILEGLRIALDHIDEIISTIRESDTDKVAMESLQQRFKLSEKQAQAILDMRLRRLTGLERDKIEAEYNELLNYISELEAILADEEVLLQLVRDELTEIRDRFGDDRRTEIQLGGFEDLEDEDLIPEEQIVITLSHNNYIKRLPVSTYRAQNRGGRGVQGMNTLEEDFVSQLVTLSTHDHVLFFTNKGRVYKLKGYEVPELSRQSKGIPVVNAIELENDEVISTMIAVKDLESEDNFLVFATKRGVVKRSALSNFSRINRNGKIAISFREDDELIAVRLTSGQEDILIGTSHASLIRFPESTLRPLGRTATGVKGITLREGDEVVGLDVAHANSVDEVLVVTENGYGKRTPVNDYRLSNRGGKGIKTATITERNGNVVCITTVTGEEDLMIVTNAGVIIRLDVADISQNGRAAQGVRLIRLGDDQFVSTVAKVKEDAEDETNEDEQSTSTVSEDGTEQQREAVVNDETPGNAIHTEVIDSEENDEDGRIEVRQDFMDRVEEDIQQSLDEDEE
T4 sequence (P0A0K8 whole entry): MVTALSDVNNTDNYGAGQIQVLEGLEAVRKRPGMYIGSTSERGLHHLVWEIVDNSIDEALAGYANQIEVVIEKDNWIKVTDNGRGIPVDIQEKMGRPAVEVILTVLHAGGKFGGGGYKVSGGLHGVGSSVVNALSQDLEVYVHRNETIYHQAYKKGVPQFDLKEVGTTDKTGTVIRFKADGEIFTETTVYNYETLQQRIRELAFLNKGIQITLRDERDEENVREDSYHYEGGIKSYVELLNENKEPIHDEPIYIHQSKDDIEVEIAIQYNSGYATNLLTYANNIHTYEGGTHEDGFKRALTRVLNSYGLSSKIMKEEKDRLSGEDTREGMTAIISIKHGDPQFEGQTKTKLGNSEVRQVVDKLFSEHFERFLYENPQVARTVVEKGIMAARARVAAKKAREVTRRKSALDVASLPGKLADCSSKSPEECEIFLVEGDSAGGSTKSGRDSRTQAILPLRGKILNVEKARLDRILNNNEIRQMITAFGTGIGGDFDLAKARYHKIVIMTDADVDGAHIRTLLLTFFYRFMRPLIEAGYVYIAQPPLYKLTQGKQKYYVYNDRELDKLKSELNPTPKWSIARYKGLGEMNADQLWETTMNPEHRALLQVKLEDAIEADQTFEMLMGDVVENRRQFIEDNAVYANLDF
Experimental: as §1, §2, §3, §4, §16, §17, §18, §8, §19, §20, §11, §21, §22, §14, §15

Row | Compound | % inhibition Topo IV (Topoisomerase IV [1]) | % inhibition DNA gyrase (DNA gyrase [2]) | % inhibition Topo IV (Topoisomerase IV [3]) | % inhibition DNA gyrase (DNA gyrase [4])
1 | O=c1cc(N2CCN(CCCNc3cc(=O)oc4ccccc34)CC2)c2ccccc2[nH]1 [Compound 68, 4-(4-{3-[(2-oxo-2H-chromen-4-yl)amino]propyl}piperazin-1-yl)quinolin-2(1H)-one hydrochloride] | n/a (n/a = not active) | 100% | n/a (n/a = not active) | n/a (n/a = not active)
2 | O=c1cc(OCCCN2CCN(c3nccc4ccccc34)CC2)c2ccccc2o1 [Compound 70, 4-{3-[4-(isoquinolin-1-yl)piperazin-1-yl]propoxy}-2H-chromen-2-one hydrochloride] | n/a (n/a = not active) | 86% | n/a (n/a = not active) | 75%
3 | O=C1CN(c2nccc3ccccc23)CCN1CCCNc1cc(=O)oc2ccccc12 [Compound 71, 4-(isoquinolin-1-yl)-1-{3-[(2-oxo-2H-chromen-4-yl)amino]propyl}piperazin-2-one hydrochloride] | n/a (n/a = not active) | 56% | n/a (n/a = not active) | n/a (n/a = not active)
4 | O=c1cc(NC2CCCC(N3CCN(c4nccc5ccccc45)CC3)C2)c2ccccc2o1 (centres unmarked) [Compound 74, 4-({3-[4-(isoquinolin-1-yl)piperazin-1-yl]cyclohexyl}amino)-2H-chromen-2-one hydrochloride] | n/a (n/a = not active) | 65% | n/a (n/a = not active) | 61%
5 | O=C(NCCN1CCN(c2nccc3ccccc23)CC1)c1cc(=O)oc2ccccc12 [Compound 75, N-{2-[4-(isoquinolin-1-yl)piperazin-1-yl]ethyl}-2-oxo-2H-chromene-4-carboxamide hydrochloride] | n/a (n/a = not active) | 69% | n/a (n/a = not active) | 61%
6 | COC(=O)C1CN(c2nccc3ccccc23)CCN1CCCNc1cc(=O)oc2ccccc12 (centres unmarked) [Compound 81, methyl 4-(isoquinolin-1-yl)-1-{3-[(2-oxo-2H-chromen-4-yl)amino]propyl}piperazine-2-carboxylate hydrochloride] | n/a (n/a = not active) | 80% | n/a (n/a = not active) | n/a (n/a = not active)
7 | O=C(O)C1CN(c2nccc3ccccc23)CCN1CCCNc1cc(=O)oc2ccccc12 (centres unmarked) [Compound 82, 4-(isoquinolin-1-yl)-1-{3-[(2-oxo-2H-chromen-4-yl)amino]propyl}piperazine-2-carboxylic acid hydrochloride] | n/a (n/a = not active) | 85% | n/a (n/a = not active) | 82%
8 | O=c1cc(NCCCN2CCN(c3nccc4ccccc34)CC2CC(F)(F)F)c2ccccc2o1 (centres unmarked) [Compound 83, 4-({3-[4-(isoquinolin-1-yl)-2-(2,2,2-trifluoroethyl)piperazin-1-yl]propyl}amino)-2H-chromen-2-one hydrochloride] | n/a (n/a = not active) | 69% | n/a (n/a = not active) | n/a (n/a = not active)
